Test in all cases: Inhibition assay, microfluidic LabChip (Nanosyn)
Holding throughout (assay type): biochemical

For experiment [1], the target named is T1, CDK4-CYCLIND1 (Homo sapiens, UniProt P11802).
T1 construct: purchased Invitrogen
Particulars: read-out: CDK4 CyclinD1 IC50. Here is the method: (§1) The reaction was terminated by the addition of EDTA. The plates were analyzed using a Caliper LabChip 3000.
(§2) Additional inhibition assays were performed as described above.

For experiment [2], the target named is CDK7 CyclinH (Homo sapiens, UniProt P50613). How it is done:
as §1, §2

Experiment [3] addresses T2, CDK2-CYCLINA (Homo sapiens, UniProt P24941).
T2 construct: purchased Millipore
How it is done: as §1, §2

The target in experiment [4] is T3, CDK9-CYCLINT1 (Homo sapiens, UniProt P50750).
T3 construct: purchased Carna
How it is done:
as §1, §2

In experiment [5] the target is CDK1/B (Homo sapiens, UniProt P06493). Particulars: Table 3a. Here is the method:
as §1, §2

The target of experiment [6] is T4, CDK6-CYCLIND3 (Homo sapiens, UniProt Q00534).
T4 construct: purchased Carna
Particulars: read-out: CDK6 CyclinD3 IC50. How it is done:
as §1, §2

Molecules are shown by their SMILES. Like-named read-outs stand apart in the source and are kept apart here.

T4 sequence (Q00534 whole entry): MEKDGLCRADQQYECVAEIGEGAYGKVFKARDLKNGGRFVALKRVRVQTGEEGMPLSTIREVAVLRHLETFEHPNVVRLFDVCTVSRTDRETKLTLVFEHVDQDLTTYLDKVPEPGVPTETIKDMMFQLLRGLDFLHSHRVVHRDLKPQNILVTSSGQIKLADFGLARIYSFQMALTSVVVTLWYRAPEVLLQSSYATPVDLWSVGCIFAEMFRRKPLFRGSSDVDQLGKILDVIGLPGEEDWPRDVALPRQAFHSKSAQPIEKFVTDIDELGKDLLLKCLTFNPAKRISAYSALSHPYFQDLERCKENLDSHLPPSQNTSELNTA
T4 sequence (P30281 whole entry partner): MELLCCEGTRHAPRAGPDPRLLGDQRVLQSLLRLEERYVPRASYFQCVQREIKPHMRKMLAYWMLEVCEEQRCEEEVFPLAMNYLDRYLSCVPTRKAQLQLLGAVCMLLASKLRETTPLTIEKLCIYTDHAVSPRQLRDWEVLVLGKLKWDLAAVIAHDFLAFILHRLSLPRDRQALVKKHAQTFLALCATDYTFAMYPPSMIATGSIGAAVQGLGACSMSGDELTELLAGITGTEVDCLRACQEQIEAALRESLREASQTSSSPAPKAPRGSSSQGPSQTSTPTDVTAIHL
T1 sequence (P11802 whole entry): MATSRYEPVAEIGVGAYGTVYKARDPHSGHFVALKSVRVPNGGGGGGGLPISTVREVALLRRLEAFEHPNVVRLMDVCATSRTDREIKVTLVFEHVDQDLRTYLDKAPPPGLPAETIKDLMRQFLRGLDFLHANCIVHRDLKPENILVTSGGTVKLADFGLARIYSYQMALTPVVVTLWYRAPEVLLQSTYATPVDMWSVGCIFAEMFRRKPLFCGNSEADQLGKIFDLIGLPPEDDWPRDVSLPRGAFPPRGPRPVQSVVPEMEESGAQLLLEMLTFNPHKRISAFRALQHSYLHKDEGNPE
T1 sequence (P24385 whole entry partner): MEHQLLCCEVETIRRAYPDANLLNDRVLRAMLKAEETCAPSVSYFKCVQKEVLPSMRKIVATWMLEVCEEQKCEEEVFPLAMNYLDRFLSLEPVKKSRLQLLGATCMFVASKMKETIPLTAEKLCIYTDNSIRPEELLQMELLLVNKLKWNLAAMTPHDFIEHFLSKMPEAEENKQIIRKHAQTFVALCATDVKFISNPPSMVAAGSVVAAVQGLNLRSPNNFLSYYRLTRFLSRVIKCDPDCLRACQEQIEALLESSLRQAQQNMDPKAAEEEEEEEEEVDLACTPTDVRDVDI
Chain of CDK7 CyclinH (P50613 whole entry): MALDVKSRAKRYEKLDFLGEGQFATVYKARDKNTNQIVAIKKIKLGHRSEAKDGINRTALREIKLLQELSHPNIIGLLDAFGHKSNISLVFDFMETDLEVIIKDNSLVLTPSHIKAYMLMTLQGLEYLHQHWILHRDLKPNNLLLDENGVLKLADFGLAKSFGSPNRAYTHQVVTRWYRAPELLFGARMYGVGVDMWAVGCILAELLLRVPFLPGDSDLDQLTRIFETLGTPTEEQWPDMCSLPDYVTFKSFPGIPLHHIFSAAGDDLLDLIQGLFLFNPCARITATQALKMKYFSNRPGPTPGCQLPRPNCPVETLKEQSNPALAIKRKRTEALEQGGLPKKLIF
Chain of CDK7 CyclinH (P51946 whole entry partner): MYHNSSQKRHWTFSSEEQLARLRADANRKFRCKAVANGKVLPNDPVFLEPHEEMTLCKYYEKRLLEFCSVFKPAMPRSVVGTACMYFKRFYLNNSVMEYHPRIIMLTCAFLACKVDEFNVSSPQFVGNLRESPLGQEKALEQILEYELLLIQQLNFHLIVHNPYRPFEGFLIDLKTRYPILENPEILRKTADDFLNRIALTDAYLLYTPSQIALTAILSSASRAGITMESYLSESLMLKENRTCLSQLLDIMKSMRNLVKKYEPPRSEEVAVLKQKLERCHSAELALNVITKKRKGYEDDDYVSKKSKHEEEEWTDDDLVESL
Chain of CDK7 CyclinH (P51948 whole entry partner): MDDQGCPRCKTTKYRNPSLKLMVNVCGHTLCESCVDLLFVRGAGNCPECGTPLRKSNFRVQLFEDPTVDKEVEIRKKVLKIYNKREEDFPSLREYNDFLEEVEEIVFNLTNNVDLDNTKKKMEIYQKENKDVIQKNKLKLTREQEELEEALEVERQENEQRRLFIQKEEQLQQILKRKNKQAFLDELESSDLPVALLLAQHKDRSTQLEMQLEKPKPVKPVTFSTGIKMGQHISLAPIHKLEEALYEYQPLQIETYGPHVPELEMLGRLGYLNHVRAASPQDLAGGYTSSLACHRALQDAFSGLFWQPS
T3 sequence (P50750 whole entry): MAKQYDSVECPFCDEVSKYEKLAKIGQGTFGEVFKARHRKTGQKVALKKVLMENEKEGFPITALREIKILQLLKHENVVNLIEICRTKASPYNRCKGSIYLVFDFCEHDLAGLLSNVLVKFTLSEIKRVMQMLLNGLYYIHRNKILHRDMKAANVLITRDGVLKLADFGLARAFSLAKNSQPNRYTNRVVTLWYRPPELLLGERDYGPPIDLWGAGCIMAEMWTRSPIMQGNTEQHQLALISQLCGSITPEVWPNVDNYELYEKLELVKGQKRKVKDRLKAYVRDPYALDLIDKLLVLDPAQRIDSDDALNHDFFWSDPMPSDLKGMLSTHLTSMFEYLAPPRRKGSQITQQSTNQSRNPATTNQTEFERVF
T3 sequence (O60563 whole entry partner): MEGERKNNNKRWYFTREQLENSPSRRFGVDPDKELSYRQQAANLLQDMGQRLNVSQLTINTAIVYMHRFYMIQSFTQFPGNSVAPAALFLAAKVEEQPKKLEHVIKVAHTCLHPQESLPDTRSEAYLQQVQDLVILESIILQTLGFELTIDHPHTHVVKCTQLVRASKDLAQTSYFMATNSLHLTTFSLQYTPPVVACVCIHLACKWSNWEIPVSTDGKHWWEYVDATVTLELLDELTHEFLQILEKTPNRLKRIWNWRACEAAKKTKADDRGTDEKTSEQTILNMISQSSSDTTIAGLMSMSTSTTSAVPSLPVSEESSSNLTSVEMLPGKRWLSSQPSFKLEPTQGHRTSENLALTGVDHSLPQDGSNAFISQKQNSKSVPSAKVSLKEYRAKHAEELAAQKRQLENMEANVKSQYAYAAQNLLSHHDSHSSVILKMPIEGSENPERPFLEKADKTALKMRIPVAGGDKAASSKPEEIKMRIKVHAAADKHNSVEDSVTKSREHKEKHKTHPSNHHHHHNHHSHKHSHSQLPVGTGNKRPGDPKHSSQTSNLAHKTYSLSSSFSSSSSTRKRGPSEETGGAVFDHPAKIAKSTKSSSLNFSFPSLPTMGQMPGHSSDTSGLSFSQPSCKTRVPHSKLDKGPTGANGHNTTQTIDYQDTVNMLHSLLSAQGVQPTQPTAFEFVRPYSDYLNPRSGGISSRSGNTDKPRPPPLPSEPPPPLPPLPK
Chain of CDK1/B (P06493 whole entry): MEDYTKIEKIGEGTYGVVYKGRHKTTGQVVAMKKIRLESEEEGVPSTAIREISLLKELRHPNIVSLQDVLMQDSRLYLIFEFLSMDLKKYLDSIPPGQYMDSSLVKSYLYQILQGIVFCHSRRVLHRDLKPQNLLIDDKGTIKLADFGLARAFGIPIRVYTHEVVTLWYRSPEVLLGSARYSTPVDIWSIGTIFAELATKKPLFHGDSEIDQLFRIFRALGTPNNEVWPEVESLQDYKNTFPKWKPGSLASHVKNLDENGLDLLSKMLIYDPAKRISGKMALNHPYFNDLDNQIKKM
Chain of CDK1/B (P14635 whole entry partner): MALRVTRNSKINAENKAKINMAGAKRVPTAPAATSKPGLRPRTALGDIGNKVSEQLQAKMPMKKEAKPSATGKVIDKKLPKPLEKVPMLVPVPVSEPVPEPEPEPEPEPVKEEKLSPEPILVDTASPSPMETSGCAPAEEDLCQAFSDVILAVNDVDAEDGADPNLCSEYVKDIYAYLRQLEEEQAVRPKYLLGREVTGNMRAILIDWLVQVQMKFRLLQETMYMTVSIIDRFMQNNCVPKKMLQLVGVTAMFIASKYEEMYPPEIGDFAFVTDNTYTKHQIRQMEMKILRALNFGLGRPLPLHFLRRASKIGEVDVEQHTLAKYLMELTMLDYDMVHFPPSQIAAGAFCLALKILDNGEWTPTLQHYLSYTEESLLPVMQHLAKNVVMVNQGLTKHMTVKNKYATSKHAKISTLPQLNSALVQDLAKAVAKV

What is called IC50 is the concentration needed to halve the response being measured. With `CN(C)CCOc1ccc(Nc2ncc3cc(C(=O)N(C)C)n(C45CC(C4)C5)c3n2)cc1` [Compound A60, 7-(bicyclo[1.1.1]pentan-1-yl)-2-((4-(2-(dimethylamino)ethoxy)phenyl)amino)-N,N-dimethyl-7H-pyrrolo[2,3-d]pyrimidine-6-carboxamide], the IC50 in experiment [1] (Table 3a) came out at 7.9 nM; in experiment [1] (Table 3b) it was 7.9 nM; in experiment [2] (Table 3a), 3420 nM; in experiment [2] (Table 3b), 3420 nM; in experiment [3] (Table 3a), 800 nM; in experiment [3] (Table 3b) it was 800 nM. Also, the results for the IC50 in experiment [4] (Table 3a), in experiment [4] (Table 3b) and in experiment [5] were below 3.2 nM, below 3.2 nM and 955 nM, respectively.
With `CC(C)N1CCN(c2ccc(Nc3ncc4cc(C(=O)N(C)C)n(C56CC(C5)C6)c4n3)cc2)CC1` (single isomer, unassigned) [Compound A89, 7-(bicyclo[1.1.1]pentan-1-yl)-2-((4-(4-isopropylpiperazin-1-yl)phenyl)amino)-N,N-dimethyl-7H-pyrrolo[2,3-d]pyrimidine-6-carboxamide], the IC50 in experiment [1] (Table 3a) was below 3.2 nM; in experiment [1] (Table 3b), below 3.2 nM; in experiment [2] (Table 3a) it was 1520 nM; in experiment [2] (Table 3b), 1520 nM; in experiment [3] (Table 3a) it was 400 nM; in experiment [3] (Table 3b) it was 400 nM. Further, the half-inhibitory concentration (IC50) in experiment [4] (Table 3a) stood at 4.06 nM; in experiment [5] it was 440 nM.
Turning to `CN1CCC(c2ccc(Nc3ncc4cc(C(=O)N(C)C)n(C56CC(C5)C6)c4n3)cc2)CC1` [Compound A51, 7-(bicyclo[1.1.1]pentan-1-yl)-N,N-dimethyl-2-((4-(1-methylpiperidin-4-yl)phenyl)amino)-7H-pyrrolo[2,3-d]pyrimidine-6-carboxamide], the IC50 in experiment [1] (Table 3a) amounted to 4.52 nM; in experiment [1] (Table 3b), 4.52 nM; in experiment [2] (Table 3a), 2060 nM; in experiment [2] (Table 3b), 2060 nM; in experiment [3] (Table 3a), 660 nM; in experiment [3] (Table 3b) it was 660 nM. For the same compound, the figures for the concentration for half-maximal inhibition (IC50) in experiment [4] (Table 3a) and in experiment [5] were 5.46 nM and 453 nM, respectively.
Consider `Cc1cc(Nc2ncc3cc(C(=O)N(C)C)n(C45CC(C4)C5)c3n2)ccc1OCCN(C)C` [Compound A92, 7-(bicyclo[1.1.1]pentan-1-yl)-2-((4-(2-(dimethylamino)ethoxy)-3-methylphenyl)amino)-N,N-dimethyl-7H-pyrrolo[2,3-d]pyrimidine-6-carboxamide], for which the half-inhibitory concentration (IC50) worked out at 14.7 nM in experiment [1] (Table 3a); 14.7 nM in experiment [1] (Table 3b); 2650 nM in experiment [2] (Table 3a); 2650 nM in experiment [2] (Table 3b); 713 nM in experiment [3] (Table 3a); 713 nM in experiment [3] (Table 3b). Besides, the half-inhibitory concentration (IC50) was below 3.2 nM in experiment [4] (Table 3a), below 3.2 nM in experiment [4] (Table 3b) and 620 nM in experiment [5].
On to `CN1CCN(C2CCN(c3ccc(Nc4ncc5cc(C(=O)N(C)C)n(C67CC(C6)C7)c5n4)cc3F)CC2)CC1` [Compound A68, 7-(bicyclo[1.1.1]pentan-1-yl)-2-((3-fluoro-4-(4-(4-methylpiperazin-1-yl)piperidin-1-yl)phenyl)amino)-N,N-dimethyl-7H-pyrrolo[2,3-d]pyrimidine-6-carboxamide], for which the concentration for half-maximal inhibition (IC50) stood at 2680 nM in experiment [2] (Table 3a); 2680 nM in experiment [2] (Table 3b); 632 nM in experiment [3] (Table 3a); 632 nM in experiment [3] (Table 3b); 562 nM in experiment [5].
As to `CN1CCN(c2ccc(Nc3ncc4cc(C(=O)N(C)C)n(C56CC(C5)C6)c4n3)cc2)CC1` [Compound A84, 7-(bicyclo[1.1.1]pentan-1-yl)-N,N-dimethyl-2-((4-(4-methylpiperazin-1-yl)phenyl)amino)-7H-pyrrolo[2,3-d]pyrimidine-6-carboxamide], the 50% inhibitory concentration (IC50) in experiment [6] (Table 3a) amounted to 6.1 nM; in experiment [6] (Table 3b), 6.1 nM; in experiment [1] (Table 3a), 2.44 nM; in experiment [1] (Table 3b), 2.44 nM; in experiment [2] (Table 3a) it was 1430 nM; in experiment [2] (Table 3b), 1430 nM. Moreover, the 50% inhibitory concentration (IC50) turned out to be 185 nM in experiment [3] (Table 3a), 185 nM in experiment [3] (Table 3b), 5.84 nM in experiment [4] (Table 3a) and 5.84 nM in experiment [4] (Table 3b).
Take `CN1CCN(c2ccc(Nc3ncc4cc(C(=O)N(C)C)n(C56CC(C5)C6)c4n3)cc2)CC1` [Compound A88, 7-(bicyclo[1.1.1]pentan-1-yl)-N,N-dimethyl-2-((4-(4-methylpiperazin-1-yl)phenyl)amino)-7H-pyrrolo[2,3-d]pyrimidine-6-carboxamide dihydrogen chloride]: the IC50 in experiment [1] (Table 3a) is below 3.2 nM; in experiment [1] (Table 3b) it was below 3.2 nM; in experiment [2] (Table 3a), 1650 nM; in experiment [2] (Table 3b), 1650 nM; in experiment [3] (Table 3a), 354 nM; in experiment [3] (Table 3b) it was 354 nM. Besides, the IC50 stood at 5.1 nM in experiment [4] (Table 3a), 5.1 nM in experiment [4] (Table 3b) and 379 nM in experiment [5].
Turning to `CN1CC2(C1)CN(c1ccc(Nc3ncc4cc(C(=O)N(C)C)n(C56CC(C5)C6)c4n3)cc1F)C2` [Compound A70, 7-(bicyclo[1.1.1]pentan-1-yl)-2-((3-fluoro-4-(6-methyl-2,6-diazaspiro[3.3]heptan-2-yl)phenyl)amino)-N,N-dimethyl-7H-pyrrolo[2,3-d]pyrimidine-6-carboxamide], the IC50 in experiment [1] (Table 3a) worked out at 15.9 nM; in experiment [1] (Table 3b), 15.9 nM; in experiment [2] (Table 3a), 5010 nM; in experiment [2] (Table 3b), 5010 nM; in experiment [3] (Table 3a), 631 nM; in experiment [3] (Table 3b) it was 631 nM. For the same compound, the IC50 in experiment [4] (Table 3a) turned out to be 4.76 nM; in experiment [5], 732 nM.
For `CN(C)C(=O)c1cc2cnc(Nc3ccc(N4CCNCC4)cn3)nc2n1C12CC(C1)C2` [Compound A86, 7-(bicyclo[1.1.1]pentan-1-yl)-N,N-dimethyl-2-((5-(piperazin-1-yl)pyridin-2-yl)amino)-7H-pyrrolo[2,3-d]pyrimidine-6-carboxamide], the concentration for half-maximal inhibition (IC50) in experiment [6] (Table 3a) came out at 20.1 nM; in experiment [6] (Table 3b), 20.1 nM; in experiment [1] (Table 3a), 16 nM; in experiment [1] (Table 3b) it was 16 nM; in experiment [2] (Table 3a), 27400 nM; in experiment [2] (Table 3b), 27400 nM. The results for the IC50 in experiment [3] (Table 3a), in experiment [3] (Table 3b) and in experiment [4] (Table 3a) were 18900 nM, 18900 nM and 670 nM, respectively.
Turning to `CN(C)C(=O)c1cc2cnc(Nc3ccc(C4=CCNCC4)cn3)nc2n1C12CC(C1)C2` [Compound A87, 7-(bicyclo[1.1.1]pentan-1-yl)-N,N-dimethyl-2-((1′,2′,3′,6′-tetrahydro-[3,4′-bipyridin]-6-yl)amino)-7H-pyrrolo[2,3-d]pyrimidine-6-carboxamide], the IC50 was 20 nM in experiment [6] (Table 3a); 20 nM in experiment [6] (Table 3b); 25.2 nM in experiment [1] (Table 3a); 25.2 nM in experiment [1] (Table 3b); above 100000 nM in experiment [2] (Table 3a); above 100000 nM in experiment [2] (Table 3b). The IC50 in experiment [3] (Table 3a) turned out to be 50000 nM; in experiment [3] (Table 3b) it was 50000 nM; in experiment [4] (Table 3a), 553 nM.
`CC1CCN(c2ccc(Nc3ncc4cc(C(=O)N(C)C)n(C56CC(C5)C6)c4n3)cc2)CC1` [Compound A91, 7-(bicyclo[1.1.1]pentan-1-yl)-N,N-dimethyl-2-((4-(4-methylpiperidin-1-yl)phenyl)amino)-7H-pyrrolo[2,3-d]pyrimidine-6-carboxamide]: the concentration for half-maximal inhibition (IC50) came out at 25.5 nM in experiment [1] (Table 3a); 25.5 nM in experiment [1] (Table 3b); 5790 nM in experiment [2] (Table 3a); 5790 nM in experiment [2] (Table 3b); 690 nM in experiment [3] (Table 3a); 690 nM in experiment [3] (Table 3b). Further, the half-inhibitory concentration (IC50) worked out at 7.14 nM in experiment [4] (Table 3a) and 1330 nM in experiment [5].
As to `CN(C)C(=O)c1cc2cnc(Nc3ccc(N4CC5(CNC5)C4)cc3)nc2n1C12CC(C1)C2` [Compound A48, 2-((4-(2,6-diazaspiro[3.3]heptan-2-yl)phenyl)amino)-7-(bicyclo[1.1.1]pentan-1-yl)-N,N-dimethyl-7H-pyrrolo[2,3-d]pyrimidine-6-carboxamide], the concentration for half-maximal inhibition (IC50) came to 44 nM in experiment [6] (Table 3a); 44 nM in experiment [6] (Table 3b); 16.4 nM in experiment [1] (Table 3a); 16.4 nM in experiment [1] (Table 3b); 4860 nM in experiment [2] (Table 3a); 4860 nM in experiment [2] (Table 3b). Moreover, the figures for the IC50 in experiment [3] (Table 3a), in experiment [3] (Table 3b) and in experiment [4] (Table 3a) were 666 nM, 666 nM and 14.9 nM, respectively.
In the case of `CN1CC2(C1)CN(c1ccc(Nc3ncc4cc(C(=O)N(C)C)n(C56CC(C5)C6)c4n3)cc1)C2` [Compound A69, 7-(bicyclo[1.1.1]pentan-1-yl)-N,N-dimethyl-2-((4-(6-methyl-2,6-diazaspiro[3.3]heptan-2-yl)phenyl)amino)-7H-pyrrolo[2,3-d]pyrimidine-6-carboxamide], the IC50 in experiment [1] (Table 3a) was 14 nM; in experiment [1] (Table 3b) it was 14 nM; in experiment [2] (Table 3a), above 10000 nM; in experiment [2] (Table 3b), above 10000 nM; in experiment [3] (Table 3a), 1470 nM; in experiment [3] (Table 3b), 1470 nM. Further, the IC50 in experiment [4] (Table 3a) stood at 5.1 nM; in experiment [5], 1830 nM.
For the compound `CN(C)CCOc1ccc(Nc2ncc3cc(C(=O)N(C)C)n(C45CC(C4)C5)c3n2)cc1F` [Compound A93, 7-(bicyclo[1.1.1]pentan-1-yl)-2-((4-(2-(dimethylamino)ethoxy)-3-fluorophenyl)amino)-N,N-dimethyl-7H-pyrrolo[2,3-d]pyrimidine-6-carboxamide], the IC50 in experiment [1] (Table 3a) turned out to be 6.98 nM; in experiment [1] (Table 3b) it was 6.98 nM; in experiment [2] (Table 3a), 2140 nM; in experiment [2] (Table 3b), 2140 nM; in experiment [3] (Table 3a), 742 nM; in experiment [3] (Table 3b), 742 nM. The 50% inhibitory concentration (IC50) in experiment [4] (Table 3a) is below 3.2 nM; in experiment [4] (Table 3b), below 3.2 nM; in experiment [5], 655 nM.

The record behind these values is patent publication US20220056037A1 (SPV THERAPEUTICS INC., priority 2018, published 2022).
